Assay results reported in ChEMBL document CHEMBL5214928, “DEAD-Box Helicase DDX3X as a Host Target against Emerging Viruses: New Insights for Medicinal Chemical Approaches” (J Med Chem, 2022).

Key:
[1] = target: T1, ATP-dependent RNA helicase DDX3X (Homo sapiens, UniProt O00571); test: Inhibition of recombinant DDX3X (unknown origin) helicase activity using 6-FAM-labeled dsRNA as substrate incubated for 30 mins by fluorescence based assay
[2] = target: T1, ATP-dependent RNA helicase DDX3X; test: Binding affinity to DDX3X (unknown origin) assessed as inhibition constant
[3] = Half life in mouse administered intraperitoneally; type: ADME; details: in vivo, route ip
[4] = target: T1, ATP-dependent RNA helicase DDX3X; test: Inhibition of DDX3X (unknown origin) helicase activity
[5] = tested on: Human immunodeficiency virus 1; test: Antiviral activity against recombinant HIV-1 infected in CD4+ human HeLa cells assessed as reduction in viral replication; type: functional, organism-based; details: Human immunodeficiency virus 1, HeLa
[6] = Selectivity index, ratio of CC50 for human HeLa cells to EC50 for recombinant HIV-1 infected in CD4+ human HeLa cells; type: toxicity, cell-based; details: read-out: Ratio CC50/EC50
HeLa = test: Cytotoxicity against human HeLa cells assessed as reduction in cell viability incubated for 72 hrs with replacement of medium containing compound for every 24 hrs by MTS based Cell Titer 96 viability assay; type: functional
[7] = Cytotoxicity against African green monkey Vero E6 cells assessed as reduction in cell viability; type: toxicity, cell-based, Vero C1008; details: chlorocebus sabaeus
SARS-CoV-2 = test: Antiviral activity against SARS-CoV-2 isolate 2019-nCoV/Italy-INMI1 infected in African green monkey Vero E6 cells assessed as reduction in viral replication at MOI of 0.01 incubated for 5 days by qRT-PCR analysis; type: functional, organism-based; details: Severe acute respiratory syndrome coronavirus 2, 2019-nCoV/Italy-INMI1, Vero C1008, 120 h
[8] = Selectivity index, ratio of CC50 for human H9 cells to EC50 for HIV-1 NL4-3 infected in human H9 cells; type: toxicity, cell-based; details: read-out: Ratio CC50/EC50
H9 = test: Cytotoxicity against human H9 cells assessed as reduction in cell viability incubated for 72 hrs by luciferase based assay; type: functional
[9] = tested on: Human immunodeficiency virus 1; test: Antiviral activity against HIV-1 NL4-3 infected in human H9 cells assessed as reduction in viral replication at MOI of 0.03 measured after 48 hrs by Bright-Glo Luciferase Assay; type: functional, organism-based; details: Human immunodeficiency virus 1, NL4-3, H9, 48 h

T1 sequence (O00571 whole entry): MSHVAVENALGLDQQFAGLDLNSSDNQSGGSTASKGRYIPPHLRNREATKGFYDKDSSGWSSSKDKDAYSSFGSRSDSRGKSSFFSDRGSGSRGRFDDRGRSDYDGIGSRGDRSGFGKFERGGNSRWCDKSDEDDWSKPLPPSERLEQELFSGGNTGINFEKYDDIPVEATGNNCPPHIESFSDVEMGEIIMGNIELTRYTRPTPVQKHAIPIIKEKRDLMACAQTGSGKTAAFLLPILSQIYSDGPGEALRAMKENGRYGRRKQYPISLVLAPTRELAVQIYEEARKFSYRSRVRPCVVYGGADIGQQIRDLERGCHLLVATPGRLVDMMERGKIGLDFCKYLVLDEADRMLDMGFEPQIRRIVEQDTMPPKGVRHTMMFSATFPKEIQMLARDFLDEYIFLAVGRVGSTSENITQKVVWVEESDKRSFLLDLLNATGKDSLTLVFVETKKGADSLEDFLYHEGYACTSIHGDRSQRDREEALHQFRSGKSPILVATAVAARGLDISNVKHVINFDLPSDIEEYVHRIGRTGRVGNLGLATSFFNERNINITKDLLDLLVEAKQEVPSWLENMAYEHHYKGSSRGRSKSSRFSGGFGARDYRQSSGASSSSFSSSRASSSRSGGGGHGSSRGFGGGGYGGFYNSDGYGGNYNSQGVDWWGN

O=C(O)c1cc(Nc2nc3ccccc3[nH]2)ccc1O
IC50 [1]: 200 nM

Cc1ccc(Nc2nc(N/N=C/c3ccccc3O)nc(NN3CCOCC3)n2)cc1Cl
Ki [2]: 1600 nM

CCCCc1cn(-c2ccc(NC(=O)Nc3ccccc3C(F)(F)F)cc2)nn1
half-life [3]: 5 h

CCCCc1cn(-c2ccc(NC(=O)Nc3ccccc3OC3CCCC3)cc2)nn1
IC50 [4]: 140 nM

CC(C)Cc1cn(-c2ccc(NC(=O)Nc3ccccc3F)cc2)nn1
IC50 [4]: 120 nM

Cc1cccc(NC(=O)CCN2C(=O)/C(=C/c3ccccc3O)SC2=S)c1
Ki [2]: 97000 nM

Oc1ccccc1/C=N/Nc1nc(NCc2ccccc2)nc(NN2CCOCC2)n1
Ki [2]: 600 nM

O=C1S/C(=C\c2c(NCCO)nc3ccccn3c2=O)C(=O)N1CCc1ccccc1
Ki [2]: 200 nM

CCN(CC)Nc1nc(N/N=C/c2ccccc2O)nc(Nc2ccccc2)n1
Ki [2]: 100 nM

CC(=O)Nc1ccc(/C=N/Nc2nc(Nc3ccccc3)nc(Nc3ccccc3)n2)cc1
EC50 [5]: 2000 nM
selectivity ratio [6]: 5
Ki [2]: 300 nM
CC50 (HeLa): 10000 nM

O=C(CCN1C(=O)/C(=C/c2cccc(F)c2)SC1=S)Nc1ccccc1O
Ki [2]: 7600 nM

CCCCc1cn(-c2ccc(NC(=O)Nc3ccccc3F)cc2)nn1
IC50 [4]: 600 nM

O=C(CCN1C(=O)/C(=C/c2ccccc2O)SC1=S)Nc1cc(F)cc(F)c1
Ki [2]: 500 nM

CCCCc1cn(-c2ccc(NC(=O)Nc3ccc(C)nc3)cc2)nn1
IC50 [4]: 1500 nM

CC(=O)Nc1ccc(/C=N/Nc2nc(NCc3ccccc3)nc(Nc3ccccc3)n2)cc1
Ki [2]: 500 nM

CC(=O)Nc1ccc(/C=N/Nc2nc(Nc3ccccc3)nc(NN3CCOCC3)n2)cc1
Ki [2]: 2200 nM

O=C(CCN1C(=O)/C(=C/c2ccccc2O)SC1=S)Nc1cccc(F)c1
EC50 [5]: 7500 nM
CC50 [7]: > 100000 nM
EC50 (SARS-CoV-2): < 5000 nM
selectivity ratio [6]: 7
Ki [2]: 300 nM
CC50 (HeLa): 50000 nM

CC(C)Cc1cn(-c2ccc(NC(=O)Nc3cccc(F)c3)cc2)nn1
IC50 [4]: 200 nM

O=C(NCCN1C(=O)/C(=C/c2ccccc2O)SC1=S)c1cccc(F)c1
Ki [2]: 4300 nM

Oc1ccccc1/C=N/Nc1nc(NCc2ccc(F)cc2)nc(NN2CCOCC2)n1
Ki [2]: 700 nM

O=C(O)c1ccccc1C(=O)Nc1nnc(-c2ccc(O)cc2)s1
selectivity ratio [8]: 45
CC50 (H9): 125000 nM
EC50 [9]: 2800 nM
